Measured values reported in the supplement of paper PMC10307832.

What was measured:
Test in all cases: relative viability (nuclei count vs DMSO), 5 days (fraction); higher = more cells survive
NCI-H838 = tested on: NCI-H838
Method in brief: (§1)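 Lung cancer cell lines were seeded in 1536-well plates and dosed by pin tool the next day, with either a single drug or a fixed anchor-drug dose combined with five library-drug doses (not always all listed) spaced in √10 steps. Five days later, one step fixed the cells and stained their nuclei (final 0.05% Triton X-100, 1% formaldehyde, 1 ug/ml Hoechst), and nuclei were counted on 4× images. Relative viability is the nuclei count in treated wells divided by the count in vehicle wells, and each value is the median of duplicate plates.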

NCI-H1944 = tested on: NCI-H1944
Method in brief: as §1

COR-L23 = tested on: COR-L23
Method in brief: as §1

HCC-366 = tested on: HCC-366
Method in brief: as §1

HCC-15 = tested on: HCC-15
Method in brief: as §1

NCI-H1993 = tested on: NCI-H1993
Method in brief: as §1

NCI-H2405 = tested on: NCI-H2405
Method in brief: as §1

HCC-78 = tested on: HCC-78
Method in brief: as §1

NCI-H2126 = tested on: NCI-H2126
Method in brief: as §1

EMC-BAC-2 = tested on: EMC-BAC-2
Method in brief: as §1

LC-2-ad = tested on: LC-2-ad
Method in brief: as §1

ABC-1 = tested on: ABC-1
Method in brief: as §1

NCI-H23 = tested on: NCI-H23
Method in brief: as §1

NCI-H2023 = tested on: NCI-H2023
Method in brief: as §1

SK-LU-1 = tested on: SK-LU-1
Method in brief: as §1

NCI-H358 = tested on: NCI-H358
Method in brief: as §1

NCI-H2228 = tested on: NCI-H2228
Method in brief: as §1

ChaGo-K-1 = tested on: ChaGo-K-1
Method in brief: as §1

HOP-62 = tested on: HOP-62
Method in brief: as §1

HARA = tested on: HARA
Method in brief: as §1

## Nc1ccn([C@@H]2O[C@H](CO)[C@@H](O)[C@@H]2O)c(=O)n1 [Cytarabine] + C[C@@H](Oc1cc(-c2cnn(C3CCNCC3)c2)cnc1N)c1c(Cl)ccc(F)c1Cl [Crizotinib] (partner 1 µM)
NCI-H838; first compound 0.005 µM
  relative viability: 0.715
NCI-H838; first compound 0.01581 µM
  relative viability: 0.877
NCI-H838; first compound 0.05 µM
  relative viability: 0.699
NCI-H838; first compound 0.1581 µM
  relative viability: 0.339
NCI-H838; first compound 0.5 µM
  relative viability: 0.224
NCI-H1944; first compound 0.005 µM
  relative viability: 0.9
NCI-H1944; first compound 0.01581 µM
  relative viability: 0.466
NCI-H1944; first compound 0.05 µM
  relative viability: 0.367
NCI-H1944; first compound 0.1581 µM
  relative viability: 0.2
NCI-H1944; first compound 0.5 µM
  relative viability: 0.176
COR-L23; first compound 0.005 µM
  relative viability: 0.578
COR-L23; first compound 0.01581 µM
  relative viability: 0.631
COR-L23; first compound 0.05 µM
  relative viability: 0.405
COR-L23; first compound 0.1581 µM
  relative viability: 0.166
COR-L23; first compound 0.5 µM
  relative viability: 0.122
HCC-366; first compound 0.005 µM
  relative viability: 0.405
HCC-366; first compound 0.01581 µM
  relative viability: 0.43
HCC-366; first compound 0.05 µM
  relative viability: 0.216
HCC-366; first compound 0.1581 µM
  relative viability: 0.026
HCC-366; first compound 0.5 µM
  relative viability: 0.0284
HCC-15; first compound 0.005 µM
  relative viability: 0.765
HCC-15; first compound 0.01581 µM
  relative viability: 0.895
HCC-15; first compound 0.05 µM
  relative viability: 0.84
HCC-15; first compound 0.1581 µM
  relative viability: 0.67
HCC-15; first compound 0.5 µM
  relative viability: 0.591
NCI-H1993; first compound 0.005 µM
  relative viability: 0.92
NCI-H1993; first compound 0.01581 µM
  relative viability: 0.785
NCI-H1993; first compound 0.05 µM
  relative viability: 0.845
NCI-H1993; first compound 0.1581 µM
  relative viability: 0.614
NCI-H1993; first compound 0.5 µM
  relative viability: 0.566
NCI-H2405; first compound 0.005 µM
  relative viability: 0.754
NCI-H2405; first compound 0.01581 µM
  relative viability: 0.693
NCI-H2405; first compound 0.05 µM
  relative viability: 0.592
NCI-H2405; first compound 0.1581 µM
  relative viability: 0.464
NCI-H2405; first compound 0.5 µM
  relative viability: 0.327
HCC-78; first compound 0.005 µM
  relative viability: 0.369
HCC-78; first compound 0.01581 µM
  relative viability: 0.302
HCC-78; first compound 0.05 µM
  relative viability: 0.282
HCC-78; first compound 0.1581 µM
  relative viability: 0.26
HCC-78; first compound 0.5 µM
  relative viability: 0.2
NCI-H2126; first compound 0.005 µM
  relative viability: 0.916
NCI-H2126; first compound 0.01581 µM
  relative viability: 1.01
NCI-H2126; first compound 0.05 µM
  relative viability: 0.96
NCI-H2126; first compound 0.1581 µM
  relative viability: 0.78
NCI-H2126; first compound 0.5 µM
  relative viability: 0.656
EMC-BAC-2; first compound 0.005 µM
  relative viability: 0.592
EMC-BAC-2; first compound 0.01581 µM
  relative viability: 0.574
EMC-BAC-2; first compound 0.05 µM
  relative viability: 0.472
EMC-BAC-2; first compound 0.1581 µM
  relative viability: 0.242
EMC-BAC-2; first compound 0.5 µM
  relative viability: 0.185
LC-2-ad; first compound 0.005 µM
  relative viability: 0.416
LC-2-ad; first compound 0.01581 µM
  relative viability: 0.544
LC-2-ad; first compound 0.05 µM
  relative viability: 0.453
LC-2-ad; first compound 0.1581 µM
  relative viability: 0.341
LC-2-ad; first compound 0.5 µM
  relative viability: 0.295
ABC-1; first compound 0.005 µM
  relative viability: 0.871
ABC-1; first compound 0.01581 µM
  relative viability: 0.821
ABC-1; first compound 0.05 µM
  relative viability: 0.925
ABC-1; first compound 0.1581 µM
  relative viability: 0.717
ABC-1; first compound 0.5 µM
  relative viability: 0.462
NCI-H23; first compound 0.005 µM
  relative viability: 0.458
NCI-H23; first compound 0.01581 µM
  relative viability: 0.369
NCI-H23; first compound 0.05 µM
  relative viability: 0.311
NCI-H23; first compound 0.1581 µM
  relative viability: 0.226
NCI-H23; first compound 0.5 µM
  relative viability: 0.209
NCI-H2023; first compound 0.005 µM
  relative viability: 0.366
NCI-H2023; first compound 0.01581 µM
  relative viability: 0.368
NCI-H2023; first compound 0.05 µM
  relative viability: 0.113
NCI-H2023; first compound 0.1581 µM
  relative viability: 0.101
NCI-H2023; first compound 0.5 µM
  relative viability: 0.0749
SK-LU-1; first compound 0.005 µM
  relative viability: 0.957
SK-LU-1; first compound 0.01581 µM
  relative viability: 0.83
SK-LU-1; first compound 0.05 µM
  relative viability: 0.694
SK-LU-1; first compound 0.1581 µM
  relative viability: 0.605
SK-LU-1; first compound 0.5 µM
  relative viability: 0.398
NCI-H358; first compound 0.005 µM
  relative viability: 0.488
NCI-H358; first compound 0.01581 µM
  relative viability: 0.5
NCI-H358; first compound 0.05 µM
  relative viability: 0.352
NCI-H358; first compound 0.1581 µM
  relative viability: 0.319
NCI-H358; first compound 0.5 µM
  relative viability: 0.231
NCI-H2228; first compound 0.005 µM
  relative viability: 0.373
NCI-H2228; first compound 0.01581 µM
  relative viability: 0.31
NCI-H2228; first compound 0.05 µM
  relative viability: 0.218
NCI-H2228; first compound 0.1581 µM
  relative viability: 0.124
NCI-H2228; first compound 0.5 µM
  relative viability: 0.151
ChaGo-K-1; first compound 0.005 µM
  relative viability: 0.732
ChaGo-K-1; first compound 0.01581 µM
  relative viability: 0.717
ChaGo-K-1; first compound 0.05 µM
  relative viability: 0.521
ChaGo-K-1; first compound 0.1581 µM
  relative viability: 0.383
ChaGo-K-1; first compound 0.5 µM
  relative viability: 0.358
HOP-62; first compound 0.005 µM
  relative viability: 0.766
HOP-62; first compound 0.01581 µM
  relative viability: 0.49
HOP-62; first compound 0.05 µM
  relative viability: 0.379
HOP-62; first compound 0.1581 µM
  relative viability: 0.0643
HOP-62; first compound 0.5 µM
  relative viability: 0.0736
HARA; first compound 0.005 µM
  relative viability: 1.01
HARA; first compound 0.01581 µM
  relative viability: 0.682
HARA; first compound 0.05 µM
  relative viability: 0.333
HARA; first compound 0.1581 µM
  relative viability: 0.223
HARA; first compound 0.5 µM
  relative viability: 0.169
